Experimental data as given in publication PMC10536189 (Microorganisms, 2023).
Where two headings read alike, the source gives them in different places. Where no end group is shown, it is not given here.

Legend:
[1] = system: Mycobacterium avium subsp. paratuberculosis (MAP); format: cell-based; settings: for Effect on growth of MAP compared to control: peptide 20 µg/mL, 37 °C; for Effect on growth of MAP (growth-enhancing activity) of protease-stabilised peptides: peptide 10 µg/mL, absorbance at 600 nm
M. tuberculosis = format: cell-based, Mycobacterium tuberculosis (laboratory strain H37Rv); settings: for Time to Positivity (Days.Hours) Experiment 2a / Time to Positivity (Days.Hours) Experiment 2b / Time to Positivity (Days.Hours) Experiment 1a / Time to Positivity (Days.Hours) Experiment 1b / Effect on TTP of MTB in words / Time to Positivity (Days.Hours) Experiment 2 / Time to Positivity (Days.Hours) Experiment 1: MGIT; for Time to Positivity (Days.Hours) Experiment 2a / Time to Positivity (Days.Hours) Experiment 2b: diluted inoculum; for Time to Positivity (Days.Hours) Experiment 2a: technical repeat 2a, TB control (no peptide) 15.01; for Time to Positivity (Days.Hours) Experiment 2b: technical repeat 2b, TB control (no peptide) 15.20; for Time to Positivity (Days.Hours) Experiment 1a / Time to Positivity (Days.Hours) Experiment 1b: less diluted inoculum; for Time to Positivity (Days.Hours) Experiment 1a: technical repeat 1a, TB control (no peptide) 7.02; for Time to Positivity (Days.Hours) Experiment 1b: technical repeat 1b, TB control (no peptide) 7.01; for Time to Positivity (Days.Hours) Experiment 2: control (0 µg/mL) 6.12; for Time to Positivity (Days.Hours) Experiment 1: control (0 µg/mL) 6.19
[2] = system: Mycobacterium tuberculosis (MTB); format: cell-based, Mycobacterium tuberculosis (laboratory strain H37Rv)
[3] = system: Mycobacterium avium-intracellulare; format: cell-based, Mycobacterium intracellulare serotype 7 NCTC10682; settings: Peptide 14 at 20 µg/mL
M. bovis = format: cell-based
Mycobacterium marinum = format: cell-based, Mycobacterium marinum NCTC 2275; settings: Peptide 14 at 20 µg/mL, 30 °C
Mycobacterium abscessus = format: cell-based, Mycobacterium abscessus (clinical human isolate); settings: Peptide 14 at 20 µg/mL
Mycobacterium celatum = format: cell-based, Mycobacterium celatum (clinical isolate); settings: Peptide 14 at 20 µg/mL
mycobacteria [4] = experiment: TTP in BacT/Alert system; format: cell-based; settings: Peptide 14D; BacT/Alert (Biomerieux); Figure S1
Description: (§1) Peptide 14D was used to check if other machines that are routinely used in medical microbiology for the detection of mycobacteria show shorter TTP as well. BacT/Alert (Biomerieux, Marcy-l’Étoile, France and VersaTrek (ThermoFisher, Waltham, MA, United States) were tested, and shorter TTP was shown for both systems (see Figure S1 in the Supplementary Materials).

MTB H37Rv = format: cell-based, Mycobacterium tuberculosis H37Rv; settings: 14D at 1 µg/mL
mycobacteria [5] = experiment: TTP in VersaTrek system; format: cell-based; settings: Peptide 14D; VersaTrek (ThermoFisher); Figure S1
Description: as §1

[6] = peptide 10 µg/mL, overall average of the averages of experiments 1a/1b and 2a/2b, negative = slower
[7] = crude peptide 10 µg/mL, average of experiments 1 and 2, negative = slower

Substance: RLARIVVIRVRR-CONH2 (RLARIVVIRVRR-NH2) [Peptide 70]
- Effect on growth of MAP compared to control [1]: no discernible effect on the growth
- Time to Positivity (Days.Hours) Experiment 2a (M. tuberculosis; peptide 10 µg/mL): 14.22 Days.Hours
- Time to Positivity (Days.Hours) Experiment 2b (M. tuberculosis; peptide 10 µg/mL): 15.06 Days.Hours
- Time to Positivity (Days.Hours) Experiment 1a (M. tuberculosis; peptide 10 µg/mL): 6.03 Days.Hours
- Time to Positivity (Days.Hours) Experiment 1b (M. tuberculosis; peptide 10 µg/mL): 6.19 Days.Hours
- Average % Faster than Control (M. tuberculosis; [6]): 4.2%

Substance: RLARIVVIRWAR-CONH2 (RLARIVVIRWAR-NH2) [Peptide 72]
- Effect on growth of MAP compared to control [1]: significant reduction in the growth
- Time to Positivity (Days.Hours) Experiment 2a (M. tuberculosis; peptide 10 µg/mL): 15.01 Days.Hours
- Time to Positivity (Days.Hours) Experiment 2b (M. tuberculosis; peptide 10 µg/mL): 15.13 Days.Hours
- Time to Positivity (Days.Hours) Experiment 1a (M. tuberculosis; peptide 10 µg/mL): 6.22 Days.Hours
- Time to Positivity (Days.Hours) Experiment 1b (M. tuberculosis; peptide 10 µg/mL): 7.01 Days.Hours
- Average % Faster than Control (M. tuberculosis; [6]): −0.2%

Substance: RRWRIVVIRVRR-CONH2 (RRWRIVVIRVRR-NH2) [Peptide 69]
- Effect on TTP of MTB in words (M. tuberculosis; peptide 10 µg/mL): strong hormetic response
- Time to Positivity (Days.Hours) Experiment 2a (M. tuberculosis; peptide 10 µg/mL): 13.12 Days.Hours
- Time to Positivity (Days.Hours) Experiment 2b (M. tuberculosis; peptide 10 µg/mL): 13.02 Days.Hours
- Time to Positivity (Days.Hours) Experiment 1a (M. tuberculosis; peptide 10 µg/mL): 6.02 Days.Hours
- Time to Positivity (Days.Hours) Experiment 1b (M. tuberculosis; peptide 10 µg/mL): 6.02 Days.Hours
- Average % Faster than Control (M. tuberculosis; [6]): 12.8%
- Effect on growth of MTB compared to control [2]: slight improvements

Substance: VNWKKILGKIIKVVK [Lasioglossin LL-III/Bee]
- Time to Positivity (Day.Hours) Experiment 1 (M. tuberculosis): 9.18 Day.Hours
- Time to Positivity (Day.Hours) Experiment 2 (M. tuberculosis): 8.08 Day.Hours
- Average % Faster than Control (M. tuberculosis; [7]): 13.1%

Substance: VRRFPWWWPFLRR [Tritrpticin/Pig]
- Time to Positivity (Day.Hours) Experiment 1 (M. tuberculosis): 11.08 Day.Hours
- Time to Positivity (Day.Hours) Experiment 2 (M. tuberculosis): 9.13 Day.Hours
- Average % Faster than Control (M. tuberculosis; [7]): −0.3%

Substance: WCFRVCYKGFCYRKCR [Polyphemusin/Crab *]
- Time to Positivity (Day.Hours) Experiment 1 (M. tuberculosis): 11.05 Day.Hours
- Time to Positivity (Day.Hours) Experiment 2 (M. tuberculosis): 8.13 Day.Hours
- Average % Faster than Control (M. tuberculosis; [7]): 5.6%

Substance: WGKLFKLGLHGIGLLH [NRC-15/Fish *]
- Time to Positivity (Day.Hours) Experiment 1 (M. tuberculosis): 10.21 Day.Hours
- Time to Positivity (Day.Hours) Experiment 2 (M. tuberculosis): 8.07 Day.Hours
- Average % Faster than Control (M. tuberculosis; [7]): 8.3%

Substance: WKIVFWWRR-NH2 [Peptide 14]
- Effect on growth [3]: growth stimulating effect
- Effect on growth (M. bovis): growth stimulating effect
- Dependence of growth-enhancing effect on starting inoculum [1]: lower inocula being more greatly affected
- Effect on growth of MAP compared to control [1]: strongest effects
- Effect on TTP of MTB in words (M. tuberculosis; peptide 10 µg/mL): strong hormetic response
- Time to Positivity (Days.Hours) Experiment 2a (M. tuberculosis; peptide 10 µg/mL): 13.23 Days.Hours
- Time to Positivity (Days.Hours) Experiment 2b (M. tuberculosis; peptide 10 µg/mL): 14.01 Days.Hours
- Time to Positivity (Days.Hours) Experiment 1a (M. tuberculosis; peptide 10 µg/mL): 6.01 Days.Hours
- Time to Positivity (Days.Hours) Experiment 1b (M. tuberculosis; peptide 10 µg/mL): 6.12 Days.Hours
- Average % Faster than Control (M. tuberculosis; [6]): 9.1%
- Effect on growth (Mycobacterium marinum): growth stimulating effect
- Concentration at which growth inhibition of MTB is observed [2]: 50 µg/mL
- Effect on growth of MTB compared to control [2]: slight improvements
- Upper end of concentration range with hormetic response / growth stimulation in MTB [2]: 10 µg/mL
- Effect on growth (Mycobacterium abscessus): enhance the growth
- Effect on growth (Mycobacterium celatum): growth stimulating effect

Substance: YAYVRIRGVLVRYRRC [Arenicin-2/Lugworm]
- Time to Positivity (Day.Hours) Experiment 1 (M. tuberculosis): 11.13 Day.Hours
- Time to Positivity (Day.Hours) Experiment 2 (M. tuberculosis): 8.03 Day.Hours
- Average % Faster than Control (M. tuberculosis; [7]): 6.3%

Substance: YQEPVLGPVRGPFPIIV [Casecidin 17/Cow]
- Time to Positivity (Day.Hours) Experiment 1 (M. tuberculosis): 11.12 Day.Hours
- Time to Positivity (Day.Hours) Experiment 2 (M. tuberculosis): 8.14 Day.Hours
- Average % Faster than Control (M. tuberculosis; [7]): 4.1%

Substance: rrwrivvirvrr-CONH2 [Peptide 69D]
- Effect on growth of MAP (growth-enhancing activity) of protease-stabilised peptides [1]: growth-enhancing activity remained
- Concentration at which growth inhibition of MTB is observed [2]: ≥ 10 µg/mL
- Concentration with strong sustained growth stimulation of MTB [2]: 10 ng/mL

Substance: wkivfwwrr-CONH2 [Peptide 14D]
- Effect on TTP (mycobacteria [4]): shorter TTP
- Growth enhancement after the peptide was removed [1]: reversible
- Effect on growth of MAP (growth-enhancing activity) of protease-stabilised peptides [1]: small improvement in activity
- Time to Positivity (Days.Hours) Experiment 2 (M. tuberculosis; Peptide 14D 0.1 µg/mL): 5.19 Days.Hours
- Time to Positivity (Days.Hours) Experiment 1 (M. tuberculosis; Peptide 14D 0.1 µg/mL): 5.12 Days.Hours
- Average % Faster than Control (M. tuberculosis; Peptide 14D 0.1 µg/mL, average of two independent experiments): 15.0%
- Time to Positivity (Days.Hours) Experiment 2 (M. tuberculosis; Peptide 14D 0.5 µg/mL): 5.17 Days.Hours
- Time to Positivity (Days.Hours) Experiment 1 (M. tuberculosis; Peptide 14D 0.5 µg/mL): 5.17 Days.Hours
- Average % Faster than Control (M. tuberculosis; Peptide 14D 0.5 µg/mL, average of two independent experiments): 14.1%
- Time to Positivity (Days.Hours) Experiment 2 (M. tuberculosis; Peptide 14D 1 µg/mL): 5.08 Days.Hours
- Time to Positivity (Days.Hours) Experiment 1 (M. tuberculosis; Peptide 14D 1 µg/mL): 5.05 Days.Hours
- Average % Faster than Control (M. tuberculosis; Peptide 14D 1 µg/mL, average of two independent experiments): 21.6%
- Increase of time to positivity, first experiment (M. tuberculosis; Peptide 14D 10 µg/mL): 8 h
- Increase of time to positivity, second experiment (M. tuberculosis; Peptide 14D 10 µg/mL): 20 h
- Time to Positivity (Days.Hours) Experiment 2 (M. tuberculosis; Peptide 14D 10 µg/mL): 7.08 Days.Hours
- Time to Positivity (Days.Hours) Experiment 1 (M. tuberculosis; Peptide 14D 10 µg/mL): 7.03 Days.Hours
- Average % Faster than Control (M. tuberculosis; Peptide 14D 10 µg/mL, average of two independent experiments, negative = slower): −7.3%
- Time to Positivity (Days.Hours) Experiment 2 (M. tuberculosis; Peptide 14D 25 µg/mL): 9.17 Days.Hours
- Time to Positivity (Days.Hours) Experiment 1 (M. tuberculosis; Peptide 14D 25 µg/mL): 9.21 Days.Hours
- Average % Faster than Control (M. tuberculosis; Peptide 14D 25 µg/mL, average of two independent experiments, negative = slower): −48.7%
- Delay of growth (days to reach positivity relative to control) (M. tuberculosis; Peptide 14D 50 µg/mL): about triple
- Time to Positivity (Days.Hours) Experiment 1 (M. tuberculosis; Peptide 14D 50 µg/mL): 19.15 Days.Hours
- Average % Faster than Control (M. tuberculosis; Peptide 14D 50 µg/mL, average of two independent experiments, negative = slower): −207.6%
- Copy number compared with MTB control (MTB H37Rv): higher copy number
- Copy number (MTB H37Rv; […], duplicates, cydA Taqman qPCR): 1762000
- Effect on TTP (mycobacteria [5]): shorter TTP
- Concentration at which growth inhibition of MTB is observed [2]: ≥ 10 µg/mL
- Concentration with strong sustained growth stimulation of MTB [2]: 1000 ng/mL
